Usually IC50 stands for the concentration that gives 50% inhibition. Lower therefore signals greater potency.

Structures are written as SMILES.

For assay [1], the target named is T1, human IL-17A (hIL-17A) (Homo sapiens, UniProt Q16552).
T1 construct: purchased Sino Biological Inc. 12047-H07B
T1 sequence (Q16552 24-155): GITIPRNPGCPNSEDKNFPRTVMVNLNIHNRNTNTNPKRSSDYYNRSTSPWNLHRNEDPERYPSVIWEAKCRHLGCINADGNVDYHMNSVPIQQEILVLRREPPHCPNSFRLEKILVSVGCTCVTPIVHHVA
The assay is described as follows: IL-17A enzyme-linked immunosorbent assay (competitive ELISA, receptor-ligand binding). As for the experimental part:
The inhibition of receptor-ligand binding by human IL-17A (hIL-17A) inhibitors was detected by competitive ELISA. A 96-well plate was inoculated 0.2 μg/ml IL-17 (Sino Biological Inc. Cat #12047-H07B) for incubation at 37° C. for 30 min, 100 μL for per well. The 96-well plate was washed four times with phosphate buffered saline (PBS) containing Tween-20 (PBST, 0.05% Tween-20), 200 μL for per well each time. 200 μL of 5% skim milk were added into the 96-well plate for incubation on a shaker at 25° C. for 30 min. The 96-well plate was washed four times with PBST (0.05% Tween-20), and added with 89 μL of PBST and 1 μL of a compound to be measured (100×), in which a concentration the compound to be measured (100×) was 0.003 μM-30 μM. The mixture was mixed evenly and incubated at 25° C. for 10 min. The mixture was added with 10 μL of 16 nM IL-17R, followed by incubation at 25° C. for 30 min. After washing the 96-well plate 4 times, 100 μL of anti-Fc tag horseradish peroxidase (HRP) coupled antibody were added for incubation on a shaker at 25° C. for 30 min. After washing the 96-well plate 4 times, 100 μL of 3,3′,5,5′-tetramethylbenzidine (TMB) substrate solution were added to the 96-well plate for incubation away from light at 25° C. After addition of 20% HCl, an absorbance was measure by a microplate reader at 450 nm.
The compounds prepared according to the above method were assayed for human IL-17A inhibitory activity.
On the technique in general: ELISA stands for enzyme-linked immunosorbent assay.

In assay [2] the target is T2, hIL-17A (Homo sapiens, UniProt Q16552).
T2 construct: purchased R&D 317-ILB
T2 sequence (Q16552 20-155 limits assumed): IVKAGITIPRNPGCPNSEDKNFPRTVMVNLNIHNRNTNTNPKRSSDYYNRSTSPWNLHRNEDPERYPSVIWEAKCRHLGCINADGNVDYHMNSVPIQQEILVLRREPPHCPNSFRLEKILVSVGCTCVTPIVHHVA
The experiment in a line: Inhibition of hIL-17A-induced chemokine GROα/CXCL1 production in HT-29 cell. Type of assay: cell-based. As for the experimental part: Human colorectal adenocarcinoma cell HT-29 was inoculated to a 96-well plate (5×10^4 for per well), and incubated at 37° C. on an incubator overnight. A mixture of 30 ng/mL hIL-17A protein (R&D, #317-ILB) with gradient concentrations of IL-17A small molecule inhibitors or with 0.3 μg/mL positive control IL-17A antibody (R&D, #AF-317-NA) was incubated for 1 h at 37° C., and added into the 96-well plate to incubated with HT-29 at 37° C. for 48 h. A level of GROα in a cell culture supernatant was then detected using an ELISA kit for GROα (Cisbio, #62HCXC1peg).
Inhibitory effect of the compound prepared in Examples on hIL-17A-induced chemokine GROα/CXCL1 production in HT-29 cell was tested according to the methods of Experimental Examples 1 and 2. […] “-” indicated not tested. According to the results, the compounds provided herein have good human IL-17A inhibitory activity and can be effectively used in the treatment of diseases associated with abnormal hIL-17A activity.

As for `Cc1n[nH]c(C)c1-c1ccc(NC(=O)[C@@H](NC(=O)c2ccnn2C(C)C)C2c3c(F)cc(F)cc3OCC23CC3)cc1` (some centres unmarked) [Compound 54], the IC50 in assay [1] is 136 nM.
With `Cc1n[nH]c(C)c1-c1ccc(NC(=O)[C@@H](NC(=O)c2nonc2C(C)C)C2c3c(F)ccc(F)c3OCC23CC3)cn1` (some centres unmarked) [Compound 79], the half-inhibitory concentration (IC50) in assay [1] came to 32500 nM.
As to `Cc1nonc1C(=O)N[C@H](C(=O)Nc1ccc(-c2c(C)n[nH]c2C)nc1)C1c2cc(F)ccc2OCC12CC2` (some centres unmarked) [Compound 19], the figures for the IC50 in assay [1] and in assay [2] were 190 nM and 2050 nM, respectively.
On the same counts, the results for `CCc1nonc1C(=O)N[C@H](C(=O)Nc1ccc(-c2c(C)n[nH]c2C)c(F)c1)C1c2ccc(F)cc2OCC12CC2` (some centres unmarked) [Compound 38] are 276 nM and 506 nM.
`CCc1nonc1C(=O)N[C@H](C(=O)Nc1ccc(-c2c(C)n[nH]c2C)cc1)C1c2c(F)ccc(F)c2OCC12CC2` (some centres unmarked) [Compound 78]: the IC50 in assay [1] worked out at 985 nM.
As for `Cc1n[nH]c(C)c1-c1ncc(NC(=O)[C@@H](NC(=O)c2ccnn2C(C)C)C2c3ccc(F)cc3OCC23CC3)cc1F` (some centres unmarked) [Compound 90], the IC50 in assay [1] is 144 nM; in assay [2], 188 nM.
On the same counts, the results for `Cc1nonc1C(=O)N[C@H](C(=O)Nc1ccc(-c2c(C)n[nH]c2C)cc1)C1c2ccc(F)cc2CC12CC2` (some centres unmarked) [Compound 15] are 48 nM and 71 nM.
On the same counts, the results for `Cc1n[nH]c(C)c1-c1ccc(NC(=O)[C@@H](NC(=O)c2ccnn2C(C)C)C2c3cc(F)cc(F)c3OCC23CC3)cc1` (some centres unmarked) [Compound 70] are 201 nM and 112 nM.
Regarding `Cc1n[nH]c(C)c1-c1ncc(NC(=O)[C@@H](NC(=O)c2ccnn2C(C)C)C2c3c(F)ccc(F)c3OCC23CC3)cc1F` (some centres unmarked) [Compound 83], the IC50 in assay [1] worked out at 2020 nM.
Same read-out and setting: then `CCc1nonc1C(=O)N[C@H](C(=O)Nc1ccc(-c2c(C)n[nH]c2C)cc1)C1c2c(F)cc(F)cc2OCC12CC2` (some centres unmarked) [Compound 53], with 554 nM; and `Cc1nonc1C(=O)N[C@H](C(=O)Nc1ccc(-c2c(C)n[nH]c2C)cc1)C1c2c(F)cc(F)cc2OCC12CC2` (some centres unmarked) [Compound 52], with 402 nM.
`Cc1n[nH]c(C)c1-c1ccc(NC(=O)[C@@H](NC(=O)c2conc2C2CC2)C2c3cc(F)c(F)cc3OCC23CC3)cc1` (some centres unmarked) [Compound 98] registered a half-maximal inhibitory concentration (IC50) in assay [1] of 222 nM.
Same read-out and setting: to `Cn1nccc1C(=O)N[C@H](C(=O)Nc1ccc(N2CCOCC2)nc1)C1c2ccccc2CC12CC2` (some centres unmarked) [Compound 10] belongs 98 nM.
The same measure, in the same setting: to `Cc1nonc1C(=O)N[C@H](C(=O)Nc1ccc(-c2c(C)n[nH]c2C)cc1)C1c2c(F)ccc(F)c2OCC12CC2` (some centres unmarked) [Compound 81] belongs 2060 nM.
The same measure, in the same setting: then `Cc1n[nH]c(C)c1-c1ccc(NC(=O)[C@@H](NC(=O)c2nonc2C(C)C)C2c3c(F)cc(F)cc3OCC23CC3)cn1` (some centres unmarked) [Compound 66], with 7130 nM; and `Cc1n[nH]c(C)c1-c1ccc(NC(=O)[C@@H](NC(=O)c2nonc2C(C)C)C2c3c(F)ccc(F)c3OCC23CC3)cc1` (some centres unmarked) [Compound 82], with 2030 nM; and `Cc1n[nH]c(C)c1-c1ccc(NC(=O)[C@@H](NC(=O)c2ccnn2C(C)C)C2c3c(F)ccc(F)c3OCC23CC3)cn1` (some centres unmarked) [Compound 75], with 5000 nM.
In the case of `Cc1n[nH]c(C)c1-c1ncc(NC(=O)[C@@H](NC(=O)c2nonc2C(C)C)C2c3c(F)ccc(F)c3OCC23CC3)cc1F` (some centres unmarked) [Compound 84], the IC50 in assay [1] came out at 9810 nM.
The same measure, in the same setting: then `Cc1n[nH]c(C)c1-c1ccc(NC(=O)[C@@H](NC(=O)c2c(C(C)C)no[n+]2[O-])C2c3c(F)cc(F)cc3OCC23CC3)cc1` (some centres unmarked) [Compound 61], with 339 nM; and `COCCc1nocc1C(=O)N[C@H](C(=O)Nc1cnc(-c2c(C)n[nH]c2C)c(F)c1)C1c2cc(F)c(F)cc2OCC12CC2` (some centres unmarked) [Compound 88], with 100 nM; and `COCCc1nocc1C(=O)N[C@H](C(=O)Nc1ccc(-c2c(C)n[nH]c2C)cc1)C1c2cc(F)c(F)cc2OCC12CC2` (some centres unmarked) [Compound 104], with 116 nM.
